Source: PMC10454396 (International Journal of Molecular Sciences, 2023)
≈ marks a conversion by molar mass, not a printed value.

Legend:
[1] = system: Staphylococcus aureus Newman WT; assay: MIC, broth microdilution, S. aureus Newman wild type; assay type: cell-based; details: Staphylococcus aureus, NEWMAN
Experimental: (§1) Cefazolin was obtained from Acros Organics. Ciprofloxacin hydrochloride, linezolid and vancomycin hydrochloride were obtained from Sigma-Aldrich (St. Louis, MO, USA). Tetracycline hydrochloride was obtained from Alfa Aesar. Sorangicin A was provided by HZI, Braunschweig. Stock solutions were prepared in Milli-Q water or dimethyl sulfoxide (DMSO, Sigma-Aldrich). Minimum inhibitory concentrations (MICs) were determined in cation-adjusted Mueller-Hinton broth (MHB2) using the broth microdilution method as recommended by the Clinical and Laboratory Standards Institute (CLSI). The MIC was defined as the lowest concentration of the antibiotic causing complete inhibition of visible growth of the microorganism (CLSI, 2017).
(§2) 1. In vitro characterization of mCherry expressing Staphylococcus aureus Newman
(§3) 1.1 Minimum inhibitory concentration
(§4) Table S1. Antibiotic susceptibility profile of Staphylococcus aureus Newman. WT: wild type. […]

[2] = system: Staphylococcus aureus Newman mCherry; assay: MIC, broth microdilution, mCherry-expressing S. aureus Newman; assay type: cell-based; details: Staphylococcus aureus, NEWMAN
Experimental: as §1, §2, §3, §4

zebrafish embryos = assay: Toxicity of antimicrobials on zebrafish embryos; assay type: in vivo, Danio rerio
Experimental: Toxicity of antibiotics was assessed by aquatic exposure and microinjection. For evaluation of the maximum tolerated concentration (MTC) by aquatic exposure, embryos were dechorionated at 30 hpf and placed in a flat-bottom 96-well plate (Sarstedt) with one embryo per well. Excess medium was removed and 150 µL of compound dilutions (in 0.3× Danieau’s, maximum of 1% DMSO) were added. For each antibiotic, a range of concentrations was investigated. Ten embryos were used per concentration and ten additional embryos incubated in fish medium without any antibiotic served as negative control. Microinjection of antibiotics into the caudal vein (CV) and the yolk sac was performed as described earlier. PBS-injected embryos served as negative control. Exposed embryos were maintained at 28 °C throughout the whole experiment. Embryos were monitored daily under a stereo microscope (Stemi 508, Zeiss) in order to record survival as well as anomalies, pigmentation, heartbeat and locomotor responses. An embryo was considered dead when no heart beat could be observed.

[3] = Phase I metabolic stability, human liver microsomes; assay type: in vitro ADME; details: pH 7.4
Experimental: For the evaluation of phase I metabolic stability, the compound (1 µM) was incubated with 0.5 mg/mL pooled mouse/rat liver microsomes (Xenotech, Kansas City, MO, USA) or human liver microsomes (Corning, NY, USA), 2 mM NADPH and 10 mM MgCl2 at pH 7.4 for 120 min at 37 °C. The metabolic stability of testosterone, verapamil and ketoconazole were determined in parallel to confirm the enzymatic activity of mouse/rat liver microsomes; for human liver microsomes testosterone, diclofenac and propranolol were used. The incubation was stopped after defined time points by precipitation of aliquots of the assay mixture with two volumes of ice-cold acetonitrile containing internal standard (15 nM diphenhydramine). Samples were stored on ice until the end of the incubation and precipitated protein was removed by centrifugation (15 min, 4 °C, 4000× g).

[4] = assay type: in vitro ADME; details: mouse plasma
Experimental: (§5) To determine stability in plasma, a similar setup as for the determination of metabolic stability was applied using pooled mouse, human or rat plasma (Neo Biotech, Nanterre, France). Samples were taken by mixing aliquots with four volumes of ice cold acetonitrile containing internal standard (12.5 nM diphenhydramine). The plasma stability of procain, propantheline and diltiazem were determined in parallel to confirm the enzymatic activity.

in vitro = in vitro ADME; details: read-out: Plasma Stability t1/2
Experimental: as §5

[5] = Plasma protein binding (RED), mouse plasma; assay type: in vitro ADME; details: CD-1, mouse, pooled plasma, pH 7.4, mouse plasma
Experimental: (§6) Plasma protein binding was determined using the Rapid Equilibrium Dialysis (RED) system (Thermo Fisher Scientific, Waltham, MA, USA). The compound was diluted in pooled murine (CD-1)/human or Wistar rat plasma (Neo Biotech, Nanterre, France) to 10 µM and added to the respective chamber according to the manufacturer’s protocol, followed by addition of PBS pH 7.4 to the opposite chamber. Samples were taken immediately after addition to the plate as well as after 2, 4 and 5 h by mixing 10 µL with 80 µL ice-cold acetonitrile containing 12.5 nM diphenhydramine as internal standard, followed by addition of 10 µL plasma to samples taken from PBS and vice versa. Samples were stored on ice until the end of the incubation and precipitated protein was removed by centrifugation (15 min, 4 °C, 4000× g, 2 centrifugation steps). Concentration of the remaining test compound at the different time points was analyzed by HPLC-MS/MS (TSQ Altis Plus, Thermo Fisher, Dreieich, Germany). The amount of compound bound to protein was calculated using the equation PPB [%] = 100 − 100 × (amount in buffer chamber/amount in plasma chamber).

[6] = Plasma protein binding (RED), rat plasma; assay type: in vitro ADME; details: Wistar, pooled plasma, pH 7.4, rat plasma
Experimental: as §6

[7] = Plasma protein binding (RED), human plasma; assay type: in vitro ADME; details: pooled plasma, pH 7.4, human plasma
Experimental: as §6

[8] = In vivo pharmacokinetics in male CD-1 mice, i.v.; set-up: species or system mouse; details: 5 mg/kg i.v.
Experimental: Pharmacokinetic evaluation of sorangicin A in mice was carried out by Pharmacelsus GmbH (Saarbrücken, Germany). All mouse experiments were approved by and conducted in accordance with the regulations of the local Animal Welfare authorities. Nine adult male CD-1 mice (purchased from Janvier Labs, Le Genest-Saint-Isle, France) were used. Animals were housed in a separate temperature-controlled room (20–24 °C) and maintained in a 12 h light/12 h dark cycle. […] Retrobulbar blood samples were collected from three animals at 0.083, 0.25, 0.5, 1, 3 and 7 h after i.v. administration (two time points/ animal). At each of the designated time points 100 µL blood was collected from the eye into lithium heparin tubes. Quantification of sorangicin A in the generated plasma was performed by LC-MS/MS analysis. The pharmacokinetic analysis was performed by applying a non-compartment model using the Kinetica 5.0 software (Thermo Scientific, Waltham, MA, USA). All given parameters were obtained by trapezoid area calculation.

CYP3A4 = details: cited from earlier work
S. aureus = system: S. aureus; set-up: method as in unpublished data from GBF; details: former in vivo efficacy studies; ref unpublished data from GBF; cited from earlier work
[9] = 10 µM, read-out: PPB (converted)

## C/C(=C\[C@H](C)CCCCC(=O)O)[C@@H]1O[C@@H]2C=C[C@H]1OC(=O)\C=C/C=C\C=C\[C@H]1O[C@@H]3C[C@H]1O[C@@H](/C=C/C[C@H]1O[C@H](C[C@H](O)[C@H]1C)[C@@H](O)[C@@H](O)/C=C/CC/C=C/C2)[C@@H]3C [sorangicin A]
[1]
  MIC: 0.0625 µg/mL (≈ 0.0774 µM)
[2]
  MIC: 0.0625 µg/mL (≈ 0.0774 µM)
Zebrafish embryos; long-term aquatic exposure, 200 µg/mL
  reduction in embryo survival with respect to control (1% DMSO): 10%
Zebrafish embryos; microinjection 30 mg/kg
  tolerability of injection dose: well-tolerated
Zebrafish embryos; short- and long-term aquatic exposure
  well-tolerated concentration: up to 100 µg/mL
[3]
  microsomal CLint at 1 µM: 90.4 ± 16.5 µL/min/mg
[4]
  plasma concentration after 4 h incubation: below the limit of detection
In vitro; human plasma
  half-life: > 240 min
In vitro; rat plasma
  half-life at 1 µM: > 240 min
[5]; [9]
  fraction unbound at 10 µM: 0.121
[5]; read-out: free fraction
  fraction unbound at 10 µM: > 0.1
[6]; [9]
  fraction unbound at 10 µM: 0.112
[6]; read-out: free fraction
  fraction unbound at 10 µM: > 0.1
[7]; [9]
  fraction unbound at 10 µM: 0.13
[7]; read-out: free fraction
  fraction unbound at 10 µM: > 0.1
[8]
  cZ (last measured blood concentration): 7.2 ng/mL
  time plasma levels maintained above the MIC of S. aureus: less than 30 min
[8]; mouse, plasma, iv
  AUC(0-t): 341 ng·h/mL
[8]; mouse, plasma, iv, read-out: CL (total clearance) (converted)
  clearance: 238 mL/min/kg
[8]; mouse, plasma, iv, read-out: Vz
  Vd: 18 L/kg
[8]; mouse, plasma, iv, read-out: c0 (maximum blood concentration, extrapolated time point zero)
  C0: 1830 ng/mL
[8]; mouse, plasma, iv, read-out: t1/2 (terminal phase) (converted)
  half-life: 52.2 min
CYP3A4
  CYP3A4 induction: only moderate CYP3A4 induction
S. aureus
  protective effect in mouse models of S. aureus infection: failed to show a protective effect
